From patent US7960408B2, “Quinolinyl and benzothiazolyl modulators” (Amgen Inc., priority 2000, dated 2011)
pIC50: −log10 of the molar value.

How the values were obtained:
PPARγ = target: T1, PPARγ (Homo sapiens, UniProt P37231); assay: PPARγ ligand binding assay utilizing [3H]-BRL 49653 as the radioligand; conditions: concentration required to reduce by 50% the specific binding of [3H]-BRL 49653
T1 construct: made in house
T1 sequence (P37231 1-505): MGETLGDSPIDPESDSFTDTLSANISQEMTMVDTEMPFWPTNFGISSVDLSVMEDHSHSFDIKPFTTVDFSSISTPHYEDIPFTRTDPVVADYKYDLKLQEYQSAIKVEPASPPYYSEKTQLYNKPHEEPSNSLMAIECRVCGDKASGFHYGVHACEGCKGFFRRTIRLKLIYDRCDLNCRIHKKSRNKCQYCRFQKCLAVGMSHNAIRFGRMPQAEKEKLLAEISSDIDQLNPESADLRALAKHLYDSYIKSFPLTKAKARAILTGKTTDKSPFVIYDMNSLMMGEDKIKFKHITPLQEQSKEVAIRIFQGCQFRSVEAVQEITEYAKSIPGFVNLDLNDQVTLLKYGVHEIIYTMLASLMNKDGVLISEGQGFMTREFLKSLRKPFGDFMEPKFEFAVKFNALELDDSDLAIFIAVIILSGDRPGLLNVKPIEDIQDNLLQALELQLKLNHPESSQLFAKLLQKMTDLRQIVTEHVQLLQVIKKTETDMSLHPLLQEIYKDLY
Method in brief: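 Displacement of 10 nM [3H]-BRL 49653 from PPARγ-GST fusion protein (1 μg/well) in Tris-HCl pH 8.0 buffer with KCl, DTT, BSA and NP-40; 15 min incubation, then glutathione-bead capture for 1 h, washing and scintillation counting. IC50 is the concentration halving specific radioligand binding.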

Compound | pIC50 (PPARγ) | melting point [°C]
O=S(=O)(Nc1cc(Cl)c(Oc2nc3ccc(Cl)cc3s2)c(Cl)c1)c1ccc(C(F)(F)F)cc1Cl [Compound 103, 2-Chloro-N-[3,5-dichloro-4-(6-chloro-benzothiazol-2-yloxy)-phenyl]-4-trifluoromethyl-benzenesulfonamide] | > 6.00 | 82 to 84
O=S(=O)(Nc1cc(Cl)c(Oc2nc3ccc(Cl)cc3s2)c(Cl)c1)c1ccc(Cl)cc1Cl [Compound 104, 2,4-Dichloro-N-[3,5-dichloro-4-(6-chloro-benzothiazol-2-yloxy)-phenyl]benzenesulfonamide] | 5.00 to 6.00 | 73 to 75
COc1ccc2nc(Oc3c(Cl)cc(NS(=O)(=O)c4ccc(C(F)(F)F)cc4Cl)cc3Cl)sc2c1 [Compound 106, 2-Chloro-N-[3,5-dichloro-4-(6-methoxybenzothiazol-2-yloxy)-phenyl]-4-trifluoromethyl-benzenesulfonamide] | > 6.00 | 164 to 165
